In patent US20250195513A1, “DEGRADATION OF IRAK4 BY CONJUGATION OF IRAK4 INHIBITORS WITH E3 LIGASE LIGAND AND METHODS OF USE” (BeiGene, Ltd., priority 2022, published 2025):
Like-named read-outs stand apart in the source and are kept apart here.

Target: T1, IRAK4 (Homo sapiens, UniProt Q9NWZ3)
T1 construct: endogenous in cells; host or cells: Karpas299
T1 sequence (Q9NWZ3 1-460): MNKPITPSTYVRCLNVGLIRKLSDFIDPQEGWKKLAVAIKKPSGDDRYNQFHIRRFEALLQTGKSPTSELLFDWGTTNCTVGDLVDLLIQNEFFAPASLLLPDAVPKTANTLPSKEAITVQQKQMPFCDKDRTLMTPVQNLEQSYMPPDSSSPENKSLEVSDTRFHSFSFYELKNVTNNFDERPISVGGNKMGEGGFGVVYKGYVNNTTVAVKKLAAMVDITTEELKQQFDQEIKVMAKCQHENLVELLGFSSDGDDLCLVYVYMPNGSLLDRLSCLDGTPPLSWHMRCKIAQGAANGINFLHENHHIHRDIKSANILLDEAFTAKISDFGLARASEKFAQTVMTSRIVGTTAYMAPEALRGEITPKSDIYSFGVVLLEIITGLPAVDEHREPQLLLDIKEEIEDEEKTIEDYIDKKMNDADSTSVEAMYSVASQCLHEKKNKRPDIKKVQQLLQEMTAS
Experiment: IRAK4 Degradation Assay (Karpas299, HTRF/TR-FRET)
Format: cell-based
How it was run: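 Karpas299 cells at 0.2 million per well were exposed to serially diluted compounds for 24 h or 5 h, then lysed. IRAK4 remaining in lysates was quantified by HTRF (665/620 nm) after overnight antibody incubation at room temperature. Percent degradation was fitted to a four-parameter curve to give IC50 (DC50).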

[1] = Karpas-299 cells, 5 h treatment, maximum percentage of degradation, read-out: IRAK4 in Karpas-299 (5 h) Dmax (%)
[2] = Karpas-299 cells, 5 h treatment, read-out: IRAK4 in Karpas-299 (5 h) DC50
[3] = Karpas-299 cells, 24 h treatment, maximum percentage of degradation, read-out: IRAK4 in Karpas-299 (24 h) Dmax (%)
[4] = Karpas-299 cells, 24 h treatment, read-out: IRAK4 in Karpas-299 (24 h) DC50
[5] = Degradation (Karpas-299), comparison table, Linker Type A, read-out: Compound (Linker Type A) DC50
[6] = Degradation (Karpas-299), comparison table, Linker Type A, read-out: Compound (Linker Type A) Dmax (%)

Row | Compound | Dmax [1] [%] | DC50 [2] [nM] | Dmax [3] [%] | DC50 [4] [nM] | DC50 [5] [nM] | Dmax [6] [%] | DC50 (Degradation (Karpas-299), comparison table, Linker Type B, read-out: Compound (Linker Type B) DC50) [nM] | Dmax (Degradation (Karpas-299), comparison table, Linker Type B, read-out: Compound (Linker Type B) Dmax (%)) [%]
1 | O=C1CC[C@H](c2c(F)cc(N3CC[C@@H](C(=O)N4CCN([C@H]5CC[C@H](n6cc7cc(NC(=O)c8cccc(C(F)(F)F)n8)c(C(=O)N[C@H]8C[C@H](CO)C8)cc7n6)CC5)CC4)C3)cc2F)C(=O)N1 [Example 168, 2-((1R,4R)-4-(4-((R)-1-(4-((R)-2,6-dioxopiperidin-3-yl)-3,5-difluorophenyl)pyrrolidine-3-carbonyl)piperazin-1-yl)cyclohexyl)-N-((1r,3R)-3-(hydroxymethyl)cyclobutyl)-5-(6-(trifluoromethyl)picolinamido)-2H-indazole-6-carboxamide] | 87 | 5.2 | 100 | 1.3 |  |  |  | 
2 | O=C1CCN(c2ccc(N3CCC(N4CCN(C[C@H]5CC[C@H](n6cc(NC(=O)c7coc(-c8ccnc(NCC(F)(F)F)c8)n7)c(C(F)F)n6)CC5)CC4)CC3)cc2)C(=O)N1 [Example 2, N-(3-(difluoromethyl)-1-((1r,4r)-4-((4-(1-(4-(2,4-dioxotetrahydropyrimidin-1(2H)-yl)phenyl)piperidin-4-yl)piperazin-1-yl)methyl)cyclohexyl)-1H-pyrazol-4-yl)-2-(2-((2,2,2-trifluoroethyl)amino)pyridin-4-yl)oxazole-4-carboxamide] |  |  | 6.5 | > 10000 | > 10000 | 6.5 |  | 
3 | CC(C)(O)c1cc2nn([C@H]3CC[C@H](N4CCN(C(=O)C5CN(c6ccc(N7CCC(=O)NC7=O)cc6)C5)CC4)CC3)cc2cc1NC(=O)c1cccc(C(F)(F)F)n1 [Example 40, N-(2-((1r,4r)-4-(4-(1-(4-(2,4-dioxotetrahydropyrimidin-1(2H)-yl)phenyl)azetidine-3-carbonyl)piperazin-1-yl)cyclohexyl)-6-(2-hydroxypropan-2-yl)-2H-indazol-5-yl)-6-(trifluoromethyl)picolinamide] | 89 | 23 | 99 | 0.9 |  |  |  | 
4 | CC(C)(O)c1cc2nn([C@H]3C[C@H](N4CCN(C5CN(c6cc(F)c([C@H]7CCC(=O)NC7=O)c(F)c6)C5)CC4)C3)cc2cc1NC(=O)c1ccc2cc(C#N)cnn12 [Example 331, 3-cyano-N-(2-((1R,3r)-3-(4-(1-(4-((R)-2,6-dioxopiperidin-3-yl)-3,5-difluorophenyl)azetidin-3-yl)piperazin-1-yl)cyclobutyl)-6-(2-hydroxypropan-2-yl)-2H-indazol-5-yl)pyrrolo[1,2-b]pyridazine-7-carboxamide] |  |  | 92 | 3.7 |  |  |  | 
5 | O=C1CC[C@H](c2c(F)cc(N3CC(C(=O)N4CCN(c5ccc(-n6cc(NC(=O)c7coc(-c8ccnc(NCC(F)(F)F)c8)n7)c(C(F)F)n6)cn5)CC4)C3)cc2F)C(=O)N1 [Example 29] | 76 | 162 | 96 | 6.9 |  |  |  | 
6 | O=C1CC[C@H](c2c(F)cc(N3CCC(CN4CCN([C@H]5CC[C@H](n6cc(NC(=O)c7coc(-c8ccnc(NCC(F)(F)F)c8)n7)c(C(F)F)n6)CC5)CC4)CC3)cc2F)C(=O)N1 [Example 20, N-(3-(difluoromethyl)-1-((1r,4r)-4-(4-((1-(4-((R)-2,6-dioxopiperidin-3-yl)-3,5-difluorophenyl)piperidin-4-yl)methyl)piperazin-1-yl)cyclohexyl)-1H-pyrazol-4-yl)-2-(2-((2,2,2-trifluoroethyl)amino)pyridin-4-yl)oxazole-4-carboxamide] |  |  | 97 | 4.8 |  |  |  | 
7 | O=C1CCN(c2ccc(N3CC[C@@H](C(=O)N4CCN([C@H]5CC[C@H](n6cc(NC(=O)c7coc(-c8ccnc(NCC(F)(F)F)c8)n7)c(C(F)F)n6)CC5)CC4)C3)cc2)C(=O)N1 [Example 14, N-(3-(difluoromethyl)-1-((1R,4r)-4-(4-((R)-1-(4-(2,4-dioxotetrahydropyrimidin-1(2H)-yl)phenyl)pyrrolidine-3-carbonyl)piperazin-1-yl)cyclohexyl)-1H-pyrazol-4-yl)-2-(2-((2,2,2-trifluoroethyl)amino)pyridin-4-yl)oxazole-4-carboxamide] |  |  | 70 | 3.4 |  |  |  | 
8 | O=C1CC[C@H](c2c(F)cc(N3CC(C(=O)N4CCN([C@H]5CC[C@H](n6cc(NC(=O)c7coc(-c8ccnc(NCC(F)(F)F)c8)n7)c(C(F)F)n6)CC5)CC4)C3)cc2F)C(=O)N1 [Example 16, N-(3-(difluoromethyl)-1-((1r,4r)-4-(4-(1-(4-((R)-2,6-dioxopiperidin-3-yl)-3,5-difluorophenyl)azetidine-3-carbonyl)piperazin-1-yl)cyclohexyl)-1H-pyrazol-4-yl)-2-(2-((2,2,2-trifluoroethyl)amino)pyridin-4-yl)oxazole-4-carboxamide] | 96 | 5.7 | 98 | 0.67 |  |  | 0.67 | 98
9 | COc1cc2nn(C3CCN(C4CCN(C(=O)C5CN(c6cc(F)c([C@H]7CCC(=O)NC7=O)c(F)c6)C5)CC4)CC3)cc2cc1NC(=O)c1cccc(C(F)(F)F)n1 [Example 45, (R)—N-(2-(1′-(1-(4-(2,6-dioxopiperidin-3-yl)-3,5-difluorophenyl)azetidine-3-carbonyl)-[1,4′-bipiperidin]-4-yl)-6-methoxy-2H-indazol-5-yl)-6-(trifluoromethyl)picolinamide] | 88 | 16 | 98 | 6.3 |  |  |  | 
10 | NC(=O)c1nn([C@H]2CC[C@H](N3CCN(C4CC(c5ccc(N[C@H]6CCC(=O)NC6=O)cc5)C4)CC3)CC2)cc1NC(=O)c1coc(-c2ccnc(NCC(F)(F)F)c2)n1 (stereo partly drawn) [Example 10, N-(3-carbamoyl-1-((1r,4r)-4-(4-(3-(4-(((S)-2,6-dioxopiperidin-3-yl)amino)phenyl)cyclobutyl)piperazin-1-yl)cyclohexyl)-1H-pyrazol-4-yl)-2-(2-((2,2,2-trifluoroethyl)amino)pyridin-4-yl)oxazole-4-carboxamide] |  |  | 92 | 5.4 |  |  |  | 
11 | NC(=O)c1nn([C@H]2CC[C@H](N3CCN(C4CC(c5ccc(N[C@@H]6CCC(=O)NC6=O)cc5)C4)CC3)CC2)cc1NC(=O)c1coc(-c2ccnc(NCC(F)(F)F)c2)n1 (stereo partly drawn) [Example 9, N-(3-carbamoyl-1-((1r,4r)-4-(4-(3-(4-(((R)-2,6-dioxopiperidin-3-yl)amino)phenyl)cyclobutyl)piperazin-1-yl)cyclohexyl)-1H-pyrazol-4-yl)-2-(2-((2,2,2-trifluoroethyl)amino)pyridin-4-yl)oxazole-4-carboxamide] |  |  | 95 | 2.5 |  |  |  | 
12 | COc1cc2nn(C3CCN(C(=O)[C@H]4CC[C@H](Oc5ccc(C6CCC(=O)NC6=O)cc5)CC4)CC3)cc2cc1NC(=O)c1cccc(C(F)(F)F)n1 (stereo partly shown) [Example 35, N-(2-(1-((1r,4r)-4-(4-(2,6-dioxopiperidin-3-yl)phenoxy)cyclohexane-1-carbonyl)piperidin-4-yl)-6-methoxy-2H-indazol-5-yl)-6-(trifluoromethyl)picolinamide] |  |  | 10 | > 10000 | > 10000 | 10 |  | 
13 | CC(C)c1cc(-c2nc(C(=O)Nc3cn([C@H]4CC[C@H](N5CCN(C(=O)C6CN(c7cc(F)c([C@H]8CCC(=O)NC8=O)c(F)c7)C6)CC5)CC4)nc3C(F)F)co2)ccn1 [Example 86, N-(3-(difluoromethyl)-1-((1r,4r)-4-(4-(1-(4-((R)-2,6-dioxopiperidin-3-yl)-3,5-difluorophenyl)azetidine-3-carbonyl)piperazin-1-yl)cyclohexyl)-1H-pyrazol-4-yl)-2-(2-isopropylpyridin-4-yl)oxazole-4-carboxamide] |  |  | 94 | 8.9 |  |  |  | 
14 | CC(C)(O)c1cc2nn([C@H]3CC[C@H](N4CCN(C(=O)C5CCN(c6cc(F)c([C@H]7CCC(=O)NC7=O)c(F)c6)CC5)CC4)CC3)cc2cc1NC(=O)c1cccc(C(F)(F)F)n1 [Example 47, N-(2-((1r,4r)-4-(4-(1-(4-((R)-2,6-dioxopiperidin-3-yl)-3,5-difluorophenyl)piperidine-4-carbonyl)piperazin-1-yl)cyclohexyl)-6-(2-hydroxypropan-2-yl)-2H-indazol-5-yl)-6-(trifluoromethyl)picolinamide] |  |  | 98 | 0.6 |  |  |  | 
15 | CC(C)(O)c1cc2nn([C@H]3CC[C@H](N4CCN([C@H]5CCN(c6ccc(N7CCC(=O)NC7=O)cc6)C5)CC4)CC3)cc2cc1NC(=O)c1ccc2cc(C#N)cnn12 [Example 295, 3-cyano-N-(2-((1S,4r)-4-(4-((S)-1-(4-(2,4-dioxotetrahydropyrimidin-1(2H)-yl)phenyl)pyrrolidin-3-yl)piperazin-1-yl)cyclohexyl)-6-(2-hydroxypropan-2-yl)-2H-indazol-5-yl)pyrrolo[1,2-b]pyridazine-7-carboxamide] |  |  | 87 | 16 |  |  |  | 
